The source of these data is patent US7671054B1, “Reverse-turn mimetics and method relating thereto” (Choongwae Pharma Corporation, priority 2001, dated 2010).

Each structure is given as a SMILES string.

The assay concerns TCF4/β-catenin transcription (TOPFlash) in SW480 cells. Put plainly: Reporter gene assay (TOPFlash luciferase). The format is cell-based. Conditions: Homo sapiens, SW480, Table 4; Reporter gene assay as described in Example 6; read-out: IC50. How it is done:
SW480 cells were transfected with the usage of Superfect™ transfect reagent (Qiagen, 301307). Cells were trypsinized briefly 1 day before transfection and plated on 6 well plate (5×10^5 cells/well) so that they were 50-80% confluent on the day of transfection.
Four microgram (TOPFlash) and one microgram (pRL-null) of DNAs were diluted in 150 μl of serum-free medium, and 30 μl of Superfect™ transfect reagent was added. The DNA-Superfect mixture was incubated at room temperature for 15 min, and then, 1 ml of 10% FBS DMEM was added to this complex for an additional 3 hours of incubation. While complexes were forming, cells were washed with PBS twice without antibiotics.
The DNA-Superfect™ transfect reagent complexes were applied to the cells before incubating at 37° C. at 5% CO2 for 3 hours. After incubation, recovery medium with 10% FBS was added to bring the final volume to 1.18 ml. After 3 hours incubation, the cells were harvested and reseeded to 96 well plate (3×10^4 cells/well). After overnight incubation at 37° C. at 5% CO2, the cells were treated with Compound A for 24 hours. Finally, the activity was checked by means of luciferase assay (Promega, E1960).
For orientation: Reporter assays use an easily measured gene product as a stand-in for the process of interest.
Consider `C=CCN1CC(=O)N2[C@@H](Cc3ccc(OP(=O)(O)O)cc3)C(=O)N(Cc3ccc(OC)cc3)C[C@@H]2N1C(=O)NCc1ccccc1` [Compound 209], for which the concentration for half-maximal inhibition (IC50) was determined as 1.9 ± 0.5 µM. Under `C=CCN1CC(=O)N2[C@@H](Cc3ccc(O)cc3)C(=O)N(Cc3cc(C)cc4c3N(C)CCO4)C[C@@H]2N1C(=O)NCc1ccccc1` [Compound 167] stands 1.3 ± 0.1 µM. To `C#CCn1ncc2cccc(CN3C[C@H]4N(C(=O)CN(C)N4C(=O)NCc4ccccc4)[C@@H](Cc4ccc(O)cc4)C3=O)c21` [Compound 105] belongs 16.6 ± 2.7 µM. To `CN1CC(=O)N2[C@@H](Cc3ccc(O)cc3)C(=O)N(Cc3ccccc3OC(F)(F)F)C[C@@H]2N1C(=O)NCc1ccccc1` [Compound 30] belongs 7.5 µM. For `C[C@H]1[C@H]2N(C(=O)CN(C)N2C(=O)NCc2ccccc2)[C@@H](Cc2ccc(O)cc2)C(=O)N1Cc1cccc(N(C)C)c1` [Compound 78], the IC50 was determined as 4.3 ± 0.9 µM. Turning to `[2H]c1cc(O)cc([2H])c1C[C@H]1C(=O)N(Cc2cccc3ccccc23)C[C@H]2N1C(=O)CN(C)N2C(=O)NCc1ccccc1` [Compound 172], the half-maximal inhibitory concentration (IC50) is 2.9 ± 0.4 µM.

For the compound `C=CCN1CC(=O)N2[C@@H](Cc3ccc(O)cc3)C(=O)N([C@H](C)c3ccccc3)C[C@@H]2N1C(=O)NCc1ccccc1` [Compound 183], the 50% inhibitory concentration (IC50) was determined as 12.8 ± 0.9 µM.

As for `CN(C)CCn1ncc2cccc(CN3C[C@H]4N(C(=O)CN(C)N4C(=O)NCc4ccccc4)[C@@H](Cc4ccc(O)cc4)C3=O)c21` [Compound 87], the 50% inhibitory concentration (IC50) was 8.1 ± 0.8 µM. To `CN(Cc1ccccc1)c1cccc(CN2C[C@H]3N(C(=O)CN(C)N3C(=O)NCc3ccccc3)[C@@H](Cc3ccc(O)cc3)C2=O)c1` [Compound 79] belongs 16.5 ± 4.8 µM. As for `C=CCN1CC(=O)N2[C@@H](CN([C@H](C)c3ccc(F)cc3F)C(=O)[C@@H]2Cc2ccc(O)cc2)N1C(=O)NCc1ccccc1` [Compound 188], the IC50 worked out at 4.4 ± 0.2 µM. To `CCN1CC(=O)N2[C@@H](Cc3ccc(O)cc3)C(=O)N(Cc3cccc(N4CCOCC4)c3)C[C@@H]2N1C(=O)NCc1ccccc1` [Compound 123] belongs 11.7 ± 1 µM. Under `C#CCN1CC(=O)N2[C@@H](Cc3ccc(O)cc3)C(=O)N(Cc3ccc4ncsc4c3)C[C@@H]2N1C(=O)NCc1ccccc1` [Compound 141] stands 1.8 ± 0.3 µM; under `C=CCc1nc2c(CN3C[C@H]4N(C(=O)CN(CC=C)N4C(=O)NCc4ccccc4)[C@@H](Cc4ccc(O)cc4)C3=O)cccc2s1` [Compound 220], 1.1 ± 0.3 µM.

In the case of `C=CCN1CC(=O)N2[C@@H](Cc3ccc(O)cc3)C(=O)N(Cc3ccc(OC)cc3)C[C@@H]2N1C(=O)NCc1ccccc1` [Compound 208], the IC50 came out at 1.6 ± 0.4 µM.

In the case of `C=CCN1CC(=O)N2[C@@H](Cc3ccc(O)cc3)C(=O)N(Cc3cccc(N4CCCC4)c3)C[C@@H]2N1C(=O)NCc1ccccc1` [Compound 154], the half-maximal inhibitory concentration (IC50) is 3.2 ± 0.4 µM. Consider `C=CCN1CC(=O)N2[C@@H](Cc3ccc(O)cc3)C(=O)N(Cc3cc(N(C)C(C)C)cc(C(F)(F)F)c3)C[C@@H]2N1C(=O)NCc1ccccc1` [Compound 156], for which the IC50 came to 13.3 ± 1.6 µM. In the case of `C=CCN1CC(=O)N2[C@@H](Cc3ccc(O)cc3)C(=O)N(Cc3ccc(F)cc3F)C[C@@H]2N1C(=O)NCc1ccccc1` [Compound 143], the concentration for half-maximal inhibition (IC50) is 1.3 ± 0.2 µM. For `C=CCN1CC(=O)N2[C@@H](Cc3ccc(O)cc3)C(=O)N(Cc3cccc4c3OCC4)C[C@@H]2N1C(=O)NCc1ccccc1` [Compound 205], the IC50 turned out to be 3.5 ± 0.8 µM. For the compound `C#CCN1CC(=O)N2[C@@H](Cc3ccc(O)cc3)C(=O)N(Cc3ccc(F)cc3F)[C@@H](C)[C@@H]2N1C(=O)NCc1ccccc1` [Compound 111], the IC50 was found to be 7.2 ± 0.8 µM. Under `CN1CC(=O)N2[C@@H](Cc3ccc(O)cc3)C(=O)N(Cc3ccc(F)cc3F)C[C@@H]2N1C(=O)NCc1ccc(F)cc1` [Compound 200] stands 8.6 ± 0.4 µM; under `C=CCN1CC(=O)N2[C@@H](Cc3ccc(O)cc3)C(=O)N(Cc3cccc4sc(-c5ccccc5)nc34)C[C@@H]2N1C(=O)NCc1ccccc1` [Compound 221], 4.7 ± 3.5 µM; under `CN1CC(=O)N2C(CN(Cc3cc(F)ccc3F)C(=O)[C@@H]2Cc2ccc(O)cc2)N1C(=O)NCc1ccccc1` (some centres unmarked) [Compound 14], 17.7 µM. With `CCN1CC(=O)N2[C@@H](Cc3ccc(O)cc3)C(=O)N(Cc3cccc4cccnc34)C[C@@H]2N1C(=O)NCc1ccccc1` [Compound 121], the concentration for half-maximal inhibition (IC50) was determined as 3 ± 0.4 µM. With `CN1CC(=O)N2[C@@H](Cc3ccc(O)cc3)C(=O)N(Cc3cccc4ncccc34)C[C@@H]2N1C(=O)NCc1ccccc1` [Compound 33], the half-inhibitory concentration (IC50) stood at 13 µM.

For the compound `C#CCN1CC(=O)N2[C@@H](Cc3ccc(O)cc3)C(=O)N(Cc3ccc4c(c3)OCCO4)C[C@@H]2N1C(=O)NCc1ccccc1` [Compound 135], the IC50 was determined as 2.4 ± 0.7 µM.

Regarding `C=CCN1CC(=O)N2[C@@H](Cc3ccc(OP(=O)(O)O)cc3)C(=O)N(Cc3ccc(Cl)c(N(C)C)c3)C[C@@H]2N1C(=O)NCc1ccccc1` [Compound 161], the IC50 was 1.8 ± 0.2 µM.

Take `C#CCN1CC(=O)N2[C@@H](Cc3ccc(O)cc3)C(=O)N(Cc3cc(F)c(F)cc3N(C)C)C[C@@H]2N1C(=O)NCc1ccccc1` [Compound 108]: the concentration for half-maximal inhibition (IC50) is 1.6 ± 0.1 µM. `COC(=O)c1ccccc1Cn1ncc2c(CN3C[C@H]4N(C(=O)CN(C)N4C(=O)NCc4ccccc4)[C@@H](Cc4ccc(O)cc4)C3=O)cccc21` [Compound 99]: the 50% inhibitory concentration (IC50) came to 2.4 ± 0.3 µM. `CC(c1cc(N(C)C)cc(C(F)(F)F)c1)N1C[C@H]2N(C(=O)CN(C)N2C(=O)NCc2ccccc2)[C@@H](Cc2ccc(O)cc2)C1=O` (some centres unmarked) [Compound 60]: the IC50 came out at 6.9 ± 1.7 µM. For `C=CCN1CC(=O)N2[C@@H](Cc3ccc(O)cc3)C(=O)N(Cc3cccc(OC(F)(F)F)c3)C[C@@H]2N1C(=O)NCc1ccccc1` [Compound 206], the IC50 was 1.3 ± 0.1 µM. To `CCCN1CC(=O)N2[C@@H](Cc3ccc(NC=O)cc3)C(=O)N(Cc3ccc(F)cc3F)C[C@@H]2N1C(=O)NCc1ccccc1` [Compound 160] belongs 10.6 ± 0.5 µM.

With `CN1CC(=O)N2C(CN(Cc3ccc(F)cc3)C(=O)[C@@H]2Cc2ccc(O)cc2)N1C(=O)NCc1ccccc1` (some centres unmarked) [Compound 10], the IC50 is 4 µM. Under `CN1CC(=O)N2[C@@H](Cc3ccc(O)cc3)C(=O)N(Cc3ccc4cnn(Cc5ccccc5N)c4c3)C[C@@H]2N1C(=O)NCc1ccccc1` [Compound 86] stands 9.9 ± 2.6 µM; under `CN1CC(=O)N2[C@@H](Cc3ccc(O)cc3)C(=O)N(Cc3cccc(N4CCCC4=O)c3)C[C@@H]2N1C(=O)NCc1ccccc1` [Compound 150], 12.7 ± 0.7 µM; under `CN1CC(=O)N2[C@@H]([C@H](O)c3ccc(O)cc3)C(=O)N(Cc3ccc(F)cc3F)C[C@@H]2N1C(=O)NCc1ccccc1` [Compound 113], 7.3 ± 1.1 µM. In the case of `CN1CC(=O)N2[C@@H](Cc3ccc(O)cc3)C(=O)N(Cc3ccc(F)cc3F)C[C@@H]2N1C(=O)NCc1ccc(Br)cc1` [Compound 201], the half-inhibitory concentration (IC50) was determined as 5.8 ± 0.4 µM.

Turning to `CCCN1CC(=O)N2[C@@H](Cc3ccc(O)cc3)C(=O)N(Cc3ccc(Cl)c(N(C)C)c3)C[C@@H]2N1C(=O)NCc1ccccc1` [Compound 126], the IC50 worked out at 10.3 ± 1.5 µM. To `C=CCN1CC(=O)N2[C@@H](Cc3ccc(O)cc3)C(=O)N(Cc3cccc(OCCN4CCOCC4)c3)C[C@@H]2N1C(=O)NCc1ccccc1` [Compound 132] belongs 2.3 ± 0.5 µM; to `CCCN1CC(=O)N2[C@@H](Cc3ccc(O)cc3)C(=O)N(Cc3cccc(N4CCOCC4)c3)C[C@@H]2N1C(=O)NCc1ccccc1` [Compound 124], 6.4 ± 0.4 µM; to `C=CCN1CC(=O)N2[C@@H](Cc3ccc(O)cc3)C(=O)N(Cc3ccc(Cl)c4scnc34)C[C@@H]2N1C(=O)NCc1ccccc1` [Compound 222], 3.8 ± 2.7 µM.

`CCN1CC(=O)N2[C@@H](Cc3ccc(O)cc3)C(=O)N(Cc3ccc(Cl)c(N(C)C)c3)C[C@@H]2N1C(=O)NCc1ccccc1` [Compound 125]: the IC50 came out at 9.8 ± 0.7 µM. For the compound `C=CCN1CC(=O)N2[C@@H](Cc3ccc(O)c(F)c3)C(=O)N(Cc3ccc(F)cc3)C[C@@H]2N1C(=O)NCc1ccccc1` [Compound 186], the IC50 worked out at 3.6 ± 0.3 µM. With `C=CCN1CC(=O)N2[C@@H](Cc3ccc(O)cc3)C(=O)N(Cc3cccc(OC)c3OC)C[C@@H]2N1C(=O)NCc1ccccc1` [Compound 214], the IC50 came out at 0.6 ± 0.2 µM. For the compound `C=CCN1CC(=O)N2[C@@H](Cc3ccc(O)c(F)c3)C(=O)N(Cc3cccc4scnc34)C[C@@H]2N1C(=O)NCc1ccccc1` [Compound 216], the IC50 worked out at 1.6 ± 0.2 µM. Under `CN1CC(=O)N2[C@@H](Cc3ccc(O)cc3)C(=O)N(Cc3ccc(Cl)cc3)C[C@@H]2N1C(=O)NCc1ccccc1` [Compound 28] stands 7.5 µM.

In the case of `C=CCN1CC(=O)N2[C@@H](Cc3ccc(O)cc3)C(=O)N(Cc3cccc4sc(N5CCOCC5)nc34)C[C@@H]2N1C(=O)NCc1ccccc1` [Compound 219], the IC50 turned out to be 2.2 ± 0.7 µM. Under `CN1CC(=O)N2[C@@H](Cc3ccc(O)cc3)C(=O)N(Cc3cccc4[nH]ncc34)C[C@@H]2N1C(=O)NCc1ccccc1` [Compound 70] stands 8.8 ± 1.9 µM; under `C#CCN1CC(=O)N2[C@@H](Cc3ccc(O)cc3)C(=O)N(Cc3ccc(F)cc3F)C[C@@H]2N1C(=O)NCc1ccccc1` [Compound 144], 2.1 ± 0.2 µM. Under `Cc1cccc(CN2C[C@H]3N(C(=O)CN(C)N3C(=O)NCc3ccccc3)[C@@H](Cc3ccc(O)cc3)C2=O)c1N(C)C` [Compound 48] stands 10.9 µM; under `C=CCN1CC(=O)N2[C@@H](Cc3ccc(O)cc3)C(=O)N(Cc3cccc4cccnc34)C[C@@H]2N1C(=O)NCc1ccccc1` [Compound 128], 0.4 ± 0.1 µM.

The term IC50 denotes the concentration that inhibits the measured activity by half.
